We go through 1 compound from paper PMC3277506, “Extra-Renal Elimination of Uric Acid via Intestinal Efflux Transporter BCRP/ABCG2” (PLoS ONE, 2012).

A short description of the series: Plasma uric acid, intestinal and renal clearance in oxonate-treated wild-type and Bcrp1 knockout mice. The conditions noted are these: for Intestinal secretory clearance of endogenous uric acid / Renal clearance of endogenous uric acid: oxonate-treated; for Intestinal secretory clearance of endogenous uric acid: ileum closed loop; for Renal clearance of endogenous uric acid: metabolic cages. It is filed as in vivo. The method, then:
Male Wistar rats (280±30 g body weight) used in the present study were treated with potassium oxonate, a uric acid oxidase (uricase) inhibitor. Oxonate-treated rats were established as described previously, [48]. Briefly, rats were anesthetized with 50% urethane (2 mL/kg) and infused with 0.9% NaCl, 0.5% oxonate and 4% mannitol solution from the femoral vein at the flow rate of 3 mL/hr. As a bolus, 0.9% NaCl, 1.5% oxonate and 4% mannitol solution was administered from the jugular vein at 6 mL/kg. After equilibration for 80 min, blood, urine and bile samples were collected at 20-min intervals. When [^14C]uric acid (2 µCi/rat) was used, it was intravenously injected from the jugular vein after oxonate treatment for 80 min. In order to suppress the uricolysis of [^14C]uric acid by intestinal flora, animals received orally non-absorbed antibiotics, polymyxin B, kanamycin, and vancomycin at daily doses of 50, 50 and 20 mg/kg, respectively, for 7 days before this animal study. Urine and bile were collected at 20-min intervals, and blood samples were drawn at 1, 5, 10, 20, 40, 60, 80, 100 and 120 min. Urine and bile were collected from bladder and bile ducts, respectively, and blood from the jugular vein. In mice, urine was collected for 24 hours by using metabolic cages (Natsume, Tokyo, Japan).
Mice were treated with oxonate (intraperitoneal injection of 200 mg/kg oxonate in 1% arabic gum solution) at 1 hr before injection of PB solution into the intestinal loop. Blood was withdrawn from the jugular vein at 1, 30 and 60 min. At 60 min, the intestinal luminal content was collected for measurement of intestinally secreted uric acid.
The following equation was used to calculate intestinal secretory clearance (µL/min/cm loop) and estimated total intestinal secretory clearance (CLintestine, estimated) (mL/min): [drawing 1] [drawing 2] [drawing 3] where A is the amount of uric acid secreted into the intestinal lumen of each loop for 60 min, L is the length of the intestine, and AUC is area under the plasma concentration-time curve.

For the compound `O=c1[nH]c(=O)c2[nH]c(=O)[nH]c2[nH]1` [uric acid], where the note is “Bcrp1−/− mice”, the “Intestinal secretory clearance of endogenous uric acid” value was found to be 0.61 ± 0.08 µL/min/cm and the “Renal clearance of endogenous uric acid” value turned out to be 16.0 ± 1.77 µL/min. The “Plasma uric acid level in Bcrp1−/− mice compared with wild-type mice” value (after oxonate treatment) was “much higher”. Further, under “wild-type mice”, the “Intestinal secretory clearance of endogenous uric acid” value is 1.04 ± 0.11 µL/min/cm and the “Renal clearance of endogenous uric acid” value came to 23.5 ± 1.42 µL/min.
